Eleven compounds from patent US20230391772A1, “METHODS AND COMPOSITIONS FOR TARGETED PROTEIN DEGRADATION” (Ranok Therapeutics (Hangzhou) Co. Ltd., priority 2020, published 2023) can be followed below.

Test [1] has as its target T1, KRAS(G12C) (Homo sapiens, UniProt P01116, G12C). Briefly: KRAS(G12C) Western blot protein degradation assay in LU65A cells. It counts as cell-based. The arrangement: LU65A human lung cancer cell line, which expresses KRAS(G12C); host or cells: LU65A. The conditions noted are these: 6 hr. An outline of the steps: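 Cells treated with compound at various concentrations at 37 °C for 48 hr (MIA PaCa-2) or 6 hr (LU65A), then lysed in RIPA. Protein-normalized lysates immunoblotted for KRAS with β-actin, fluorescence quantified; DC50 is the concentration giving 50% of maximal KRAS degradation.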

The target of test [2] is T1, KRAS(G12C). In words: KRAS(G12C)/SOS1 homogeneous time-resolved fluorescence (HTRF) assay. The arrangement: purchased Cisbio 63ADK000CB16PEG. The conditions noted are these: absence of GTP, 4° C. for 3 hr, read-out: KRAS (G12C) binding. The method, boiled down: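 HTRF kit measuring compound-induced block of KRAS(G12C)-SOS1 interaction without GTP. Compounds tested as 3-fold serial dilutions down to 1.02 nM, incubated with reaction components 3 h at 4 °C in sealed plates before fluorescence read.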

In test [3] the test system is MIA PaCa-2 human pancreatic carcinoma. Briefly: MIA PaCa-2 CCK-8 proliferation assay. It counts as cell-based. The conditions noted are these: Homo sapiens, MIA PaCa-2, 72 h, MIA PaCa-2 cells. An outline of the steps: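 KRAS(G12C) lines were used: MIA PaCa-2 with 2 copies, and NCI-H358 and NCI-H23 with 1 copy each. Cells were treated with 3-fold compound dilutions from 20 μM to 1.02 nM, and proliferation was read by CCK-8 absorbance. % inhibition was calculated against DMSO-treated cells after subtracting the cell-free medium blank.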

The structures appear in SMILES notation. A value given as a limit tells only on which side of the number the result lay.

T1 sequence (P01116 1-188 isoform P01116-2 G12C): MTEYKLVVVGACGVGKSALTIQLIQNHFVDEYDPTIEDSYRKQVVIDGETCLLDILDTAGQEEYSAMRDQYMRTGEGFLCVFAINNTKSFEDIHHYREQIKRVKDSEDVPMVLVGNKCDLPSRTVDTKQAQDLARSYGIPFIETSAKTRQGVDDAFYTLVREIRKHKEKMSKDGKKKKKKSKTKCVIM

`C=CC(=O)N1CCN(c2nc(OC[C@@H]3C[C@H](N4CCN(C(=O)C5CCN(Cc6ccc(-n7c(C(=O)NCC(F)(F)F)nnc7-c7cc(C(C)C)c(O)cc7O)cc6)CC5)CC4)CN3C)nc3c2CCN(c2cccc4cccc(Cl)c24)C3)C[C@@H]1CC#N` [Compound 261, 4-{4-[(4-{4-[(3S,5S)-5-({[7-(8-chloronaphthalen-1-yl)-4-[(3S)-3-(cyanomethyl)-4-(prop-2-enoyl)piperazin-1-yl]-5H,6H,8H-pyrido[3,4-d]pyrimidin-2-yl]oxy}methyl)-1-methylpyrrolidin-3-yl]piperazine-1-carbonyl}piperidin-1-yl)methyl]phenyl}-5-(2,4-dihydroxy-5-isopropylphenyl)-N-(2,2,2-trifluoroethyl)-1,2,4-triazole-3-carboxamide]: on KRAS(G12C) [1], the DC50 fell in the range of 100 to 1000 nM. In addition, the IC50 at KRAS(G12C) [2] is below 100 nM. This compound also gave an EC50 in test [3] below 100 nM.

`C=CC(=O)N1CCN(c2nc(OC[C@@H]3C[C@H](N4CCN(C(=O)C5CCN(Cc6ccc(-n7c(O)nnc7-c7cc(C)c(O)cc7O)cc6)CC5)CC4)CN3C)nc3c2CCN(c2cccc4cccc(Cl)c24)C3)C[C@@H]1CC#N` [Compound 265, 2-[(2S)-4-[7-(8-chloronaphthalen-1-yl)-2-{[(2S,4S)-4-{4-[1-({4-[3-(2,4-dihydroxy-5-methylphenyl)-5-hydroxy-1,2,4-triazol-4-yl]phenyl}methyl)piperidine-4-carbonyl]piperazin-1-yl}-1-methylpyrrolidin-2-yl]methoxy}-5H,6H,8H-pyrido[3,4-d]pyrimidin-4-yl]-1-(prop-2-enoyl)piperazin-2-yl]acetonitrile] displayed a DC50 on KRAS(G12C) [1] above 1000 nM. Also, the IC50 on KRAS(G12C) [2] is below 100 nM. The EC50 in test [3] was above 1000 nM.

Regarding `C=CC(=O)N1CCN(c2nc(OC[C@@H]3C[C@H](N4CCC5(CCN(Cc6ccc(-n7c(O)nnc7-c7cc(C(C)C)c(O)cc7O)cc6)CC5)CC4)CN3C)nc3c2CCN(c2cccc4ccccc24)C3)C[C@@H]1CC#N` [Compound 248, 2-[(2S)-4-(2-{[(2S,4S)-4-[9-({4-[3-(2,4-dihydroxy-5-isopropylphenyl)-5-hydroxy-1,2,4-triazol-4-yl]phenyl}methyl)-3,9-diazaspiro[5.5]undecan-3-yl]-1-methylpyrrolidin-2-yl]methoxy}-7-(naphthalen-1-yl)-5H,6H,8H-pyrido[3,4-d]pyrimidin-4-yl)-1-(prop-2-enoyl)piperazin-2-yl]acetonitrile], the DC50 at KRAS(G12C) [1] was 100 to 1000 nM. Also, the IC50 at KRAS(G12C) [2] lay within 100 to 1000 nM. In test [3], the EC50 is 100 to 1000 nM.

For the compound `C=CC(=O)N1CCN(c2nc(OC[C@@H]3CC[C@H](CN4CCN(Cc5ccc(-n6c(C(=O)NCC)nnc6-c6cc(C(C)C)c(O)cc6O)cc5)CC4)N3C)nc3c2CCN(c2cccc4cccc(Cl)c24)C3)C[C@@H]1CC#N` [Compound 263, 4-{4-[(4-{[(2R,5S)-5-({[7-(8-chloronaphthalen-1-yl)-4-[(3S)-3-(cyanomethyl)-4-(prop-2-enoyl)piperazin-1-yl]-5H,6H,8H-pyrido[3,4-d]pyrimidin-2-yl]oxy}methyl)-1-methylpyrrolidin-2-yl]methyl}piperazin-1-yl)methyl]phenyl}-5-(2,4-dihydroxy-5-isopropylphenyl)-N-ethyl-1,2,4-triazole-3-carboxamide], the DC50 on KRAS(G12C) [1] was above 1000 nM. Moreover, the IC50 on KRAS(G12C) [2] was below 100 nM. For the same compound, the EC50 in test [3] was below 100 nM.

`C=CC(=O)N1CCN(c2nc(OC[C@@H]3CC[C@H](CN4CCN(Cc5ccc(-n6c(C(=O)NCC)nnc6-c6cc(C(C)C)c(O)cc6O)cc5)CC4)N3C)nc3c2CCN(c2cccc(C)c2C)C3)C[C@@H]1CC#N` [Compound 282, 4-{4-[(4-{[(2R,5S)-5-[({4-[(3S)-3-(cyanomethyl)-4-(prop-2-enoyl)piperazin-1-yl]-7-(2,3-dimethylphenyl)-5H,6H,8H-pyrido[3,4-d]pyrimidin-2-yl}oxy)methyl]-1-methylpyrrolidin-2-yl]methyl}piperazin-1-yl)methyl]phenyl}-5-(2,4-dihydroxy-5-isopropylphenyl)-N-ethyl-1,2,4-triazole-3-carboxamide] displayed a DC50 on KRAS(G12C) [1] of 100 to 1000 nM. Also, the IC50 at KRAS(G12C) [2] is below 100 nM. The same compound had an EC50 in test [3] of 100 to 1000 nM.

Turning to `C=CC(=O)N1CCN(c2nc(OCC3(CN4CCN(Cc5ccc(-n6c(C(=O)NCC)nnc6-c6cc(C(C)C)c(O)cc6O)cc5)CC4)CC3)nc3c2CCN(c2cccc4cccc(Cl)c24)C3)C[C@@H]1CC#N` [Compound 285, 4-{4-[(4-{[1-({[7-(8-chloronaphthalen-1-yl)-4-[(3S)-3-(cyanomethyl)-4-(prop-2-enoyl)piperazin-1-yl]-5H,6H,8H-pyrido[3,4-d]pyrimidin-2-yl]oxy}methyl)cyclopropyl]methyl}piperazin-1-yl)methyl]phenyl}-5-(2,4-dihydroxy-5-isopropylphenyl)-N-ethyl-1,2,4-triazole-3-carboxamide], the DC50 on KRAS(G12C) [1] fell in the range of 100 to 1000 nM. Moreover, the IC50 at KRAS(G12C) [2] is below 100 nM. The same compound came in with an EC50 in test [3] below 100 nM.

As to `C=CC(=O)N1CCN(c2nc(OC[C@@H]3CC[C@H](CN4CCN(C(=O)C5CCN(Cc6ccc(-n7c(C(=O)NCC)nnc7-c7cc(C(C)C)c(O)cc7O)cc6)CC5)CC4)N3C)nc3c2CCN(c2cccc4cccc(C)c24)C3)C[C@@H]1CC#N` [Compound 274, 4-(4-{[4-(4-{[(2R,5S)-5-[({4-[(3S)-3-(cyanomethyl)-4-(prop-2-enoyl)piperazin-1-yl]-7-(8-methylnaphthalen-1-yl)-5H,6H,8H-pyrido[3,4-d]pyrimidin-2-yl}oxy)methyl]-1-methylpyrrolidin-2-yl]methyl}piperazine-1-carbonyl)piperidin-1-yl]methyl}phenyl)-5-(2,4-dihydroxy-5-isopropylphenyl)-N-ethyl-1,2,4-triazole-3-carboxamide], at KRAS(G12C) [1], the DC50 is above 1000 nM. In addition, the IC50 at KRAS(G12C) [2] is below 100 nM. Also, the EC50 in test [3] was 100 to 1000 nM.

Take `C=CC(=O)N1CCN(c2nc(OC[C@@H]3CC[C@H](CN4CCN(C(=O)C5CCN(Cc6ccc(-n7c(C(=O)NCC)nnc7-c7cc(CC)c(O)cc7O)cc6)CC5)CC4)N3C)nc3c2CCN(c2cccc4cccc(Cl)c24)C3)C[C@@H]1CC#N` [Compound 244, 4-(4-{[4-(4-{[(2R,5S)-5-({[7-(8-chloronaphthalen-1-yl)-4-[(3S)-3-(cyanomethyl)-4-(prop-2-enoyl)piperazin-1-yl]-5H,6H,8H-pyrido[3,4-d]pyrimidin-2-yl]oxy}methyl)-1-methylpyrrolidin-2-yl]methyl}piperazine-1-carbonyl)piperidin-1-yl]methyl}phenyl)-N-ethyl-5-(5-ethyl-2,4-dihydroxyphenyl)-1,2,4-triazole-3-carboxamide]: the DC50 on KRAS(G12C) [1] fell in the range of 100 to 1000 nM. Also, the IC50 on KRAS(G12C) [2] was below 100 nM. Further, the EC50 in test [3] was below 100 nM.

With `C=CC(=O)N1CCN(c2nc(OCC3(CN4CCN(Cc5ccc(-n6c(O)nnc6-c6cc(C(C)C)c(O)cc6O)cc5)CC4)CC3)nc3c2CCN(c2cccc4cccc(Cl)c24)C3)C[C@@H]1CC#N` [Compound 284, 2-[(2S)-4-[7-(8-chloronaphthalen-1-yl)-2-[(1-{[4-({4-[3-(2,4-dihydroxy-5-isopropylphenyl)-5-hydroxy-1,2,4-triazol-4-yl]phenyl}methyl)piperazin-1-yl]methyl}cyclopropyl)methoxy]-5H,6H,8H-pyrido[3,4-d]pyrimidin-4-yl]-1-(prop-2-enoyl)piperazin-2-yl]acetonitrile], the DC50 on KRAS(G12C) [1] lay within 100 to 1000 nM. The IC50 on KRAS(G12C) [2] was below 100 nM. The same compound gave an EC50 in test [3] of 100 to 1000 nM.

The compound `C=CC(=O)N1CCN(c2nc(OC[C@@H]3CC[C@H](CN4CCN(C(=O)C5CCN(Cc6ccc(-n7c(O)nnc7-c7cc(CC)c(O)cc7O)cc6)CC5)CC4)N3C)nc3c2CCN(c2cccc4cccc(Cl)c24)C3)C[C@@H]1CC#N` [Compound 245, 2-[(2S)-4-[7-(8-chloronaphthalen-1-yl)-2-{[(2S,5R)-5-({4-[1-({4-[3-(5-ethyl-2,4-di hydroxyphenyl)-5-hydroxy-1,2,4-triazol-4-yl]phenyl}methyl)piperidine-4-carbonyl]piperazin-1-yl}methyl)-1-methylpyrrolidin-2-yl]methoxy}-5H,6H,8H-pyrido [3,4-d]pyrimidin-4-yl]-1-(prop-2-enoyl)piperazin-2-yl]acetonitrile] came in with a DC50 on KRAS(G12C) [1] above 1000 nM. Also, on KRAS(G12C) [2], the IC50 was below 100 nM. The EC50 in test [3] was in the range of 100 to 1000 nM.

For `C=CC(=O)N1CCN(c2nc(OC[C@@H]3C[C@@H](N(C)C(=O)C4CCN(Cc5ccc(-n6c(C(=O)NCC(F)(F)F)nnc6-c6cc(C(C)C)c(O)cc6O)cc5)CC4)CN3C)nc3c2CCN(c2cccc4cccc(Cl)c24)C3)C[C@@H]1CC#N` [Compound 235, N-((3R,5S)-5-(((4-((S)-4-acryloyl-3-(cyanomethyl)piperazin-1-yl)-7-(8-chloronaphthalen-1-yl)-5,6,7,8-tetrahydropyrido[3,4-d]pyrimidin-2-yl)oxy)methyl)-1-methylpyrrolidin-3-yl)-1-(4-(3-(2,4-dihydroxy-5-isopropylphenyl)-5-((2,2,2-trifluoroethyl)carbamoyl)-4H-1,2,4-triazol-4-yl)benzyl)-N-methylpiperidine-4-carboxamide], the DC50 on KRAS(G12C) [1] was above 1000 nM. Moreover, on KRAS(G12C) [2], the IC50 lay within 100 to 1000 nM. The EC50 in test [3] was in the range of 100 to 1000 nM.
